Laboratory results: the supplement of paper PMC10307832

Legend:
Assay in all cases: relative viability (nuclei count vs DMSO), 5 days (fraction); higher = more cells survive
[1] = compound: Nc1ccccc1NC(=O)c1ccc(CNC(=O)OCc2cccnc2)cc1 [Entinostat] + Cc1nc(NC(=O)N2CCC[C@H]2C(N)=O)sc1-c1ccnc(C(C)(C)C(F)(F)F)c1 [Alpelisib] (partner 2 µM)
Summary of the method: (§1)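 For relative viability, nuclei counts in treated wells were divided by those in vehicle wells. Lung cancer cell lines had been pin-tool dosed in 1536-well plates the day after seeding and cultured for 5 days, then fixed and stained in one step (final 0.05% Triton X-100, 1% formaldehyde, 1 ug/ml Hoechst) and imaged at 4×. Doses were one drug alone or a fixed anchor-drug dose plus five library-drug doses (not always all listed) in √10 steps, and values are duplicate-plate medians.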

[2] = compound: Nc1ccccc1NC(=O)c1ccc(CNC(=O)OCc2cccnc2)cc1 [Entinostat] + COc1cccc2cc(-c3nc([C@H]4CC[C@H](C(=O)O)CC4)n4ncnc(N)c34)[nH]c12 [OSI-027] (partner 0.5 µM)
Summary of the method: as §1

[3] = compound: Nc1ccccc1NC(=O)c1ccc(CNC(=O)OCc2cccnc2)cc1 [Entinostat] + C[C@@H](Oc1cc(-c2cnn(C3CCNCC3)c2)cnc1N)c1c(Cl)ccc(F)c1Cl [Crizotinib] (partner 1 µM)
Summary of the method: as §1

[4] = compound: Nc1ccccc1NC(=O)c1ccc(CNC(=O)OCc2cccnc2)cc1 [Entinostat] + COc1cc2c(Oc3ccc(NC(=O)C4(C(=O)Nc5ccc(F)cc5)CC4)cc3F)ccnc2cc1OCCCN1CCOCC1 [Foretinib] (partner 0.25 µM)
Summary of the method: as §1

Cell Line | relative viability ([1]; first compound 0.02 µM) | relative viability ([1]; first compound 0.06325 µM) | relative viability ([1]; first compound 0.2 µM) | relative viability ([1]; first compound 0.6325 µM) | relative viability ([1]; first compound 2 µM) | relative viability ([2]; first compound 0.02 µM) | relative viability ([2]; first compound 0.06325 µM) | relative viability ([2]; first compound 0.2 µM) | relative viability ([2]; first compound 0.6325 µM) | relative viability ([2]; first compound 2 µM) | relative viability ([3]; first compound 0.02 µM) | relative viability ([3]; first compound 0.06325 µM) | relative viability ([3]; first compound 0.2 µM) | relative viability ([3]; first compound 0.6325 µM) | relative viability ([3]; first compound 2 µM) | relative viability ([4]; first compound 0.02 µM) | relative viability ([4]; first compound 0.06325 µM) | relative viability ([4]; first compound 0.2 µM) | relative viability ([4]; first compound 0.6325 µM) | relative viability ([4]; first compound 2 µM)
HCC-827 | 0.836 | 0.848 | 0.607 | 0.532 | 0.359 | 0.713 | 0.749 | 0.688 | 0.402 | 0.292 | 0.868 | 0.889 | 0.699 | 0.559 | 0.384 | 0.954 | 0.962 | 0.83 | 0.737 | 0.355
HOP-62 | 1.02 | 0.9 | 0.929 | 0.599 | 0.348 | 0.801 | 0.882 | 0.85 | 0.49 | 0.248 | 0.951 | 1.03 | 0.812 | 0.618 | 0.288 | 1.11 | 0.983 | 0.995 | 0.609 | 0.356
LC-2-ad | 0.864 | 0.777 | 0.761 | 0.348 | 0.187 | 0.768 | 0.842 | 0.578 | 0.349 | 0.27 | 0.521 | 0.4 | 0.36 | 0.296 | 0.241 | 0.907 | 0.905 | 0.723 | 0.512 | 0.338
LCLC-97TM1 | 0.262 | 0.224 | 0.245 | 0.225 | 0.156 | 0.583 | 0.462 | 0.51 | 0.408 | 0.43 | 0.285 | 0.435 | 0.303 | 0.273 | 0.151 | 1.05 | 0.934 | 1 | 0.995 | 0.844
LCLC-103H | 1.04 | 1.09 | 0.894 | 0.783 | 0.571 | 0.473 | 0.555 | 0.504 | 0.393 | 0.279 | 0.968 | 1.03 | 0.992 | 0.801 | 0.631 | 0.802 | 0.66 | 0.612 | 0.666 | 0.384
LK-2 | 1.1 | 1.03 | 1.04 | 0.692 | 0.421 | 0.221 | 0.187 | 0.188 | 0.188 | 0.18 | 0.252 | 0.234 | 0.227 | 0.255 | 0.248 | 1.02 | 1.31 | 0.905 | 0.683 | 0.543
LOU-NH91 | 0.701 | 0.747 | 0.718 | 0.592 | 0.605 | 0.719 | 0.761 | 0.708 | 0.652 | 0.585 | 0.705 | 0.754 | 0.757 | 0.742 | 0.678 | 0.937 | 0.984 | 0.919 | 0.844 | 0.779
LU99A | 0.517 | 0.5 | 0.546 | 0.418 | 0.324 | 0.308 | 0.314 | 0.353 | 0.27 | 0.296 | 0.537 | 0.592 | 0.565 | 0.38 | 0.267 | 0.773 | 0.739 | 0.76 | 0.579 | 0.442
